This is an account of results in article PMC7270110, “Labeled oxytocin administered via the intranasal route reaches the brain in rhesus macaques” (Nature Communications, 2020).

Where “and” joins values, the source holds several entries; their conditions need not be identical. Equal values may be shown once. Read-outs that look alike come from different tables or passages of the source.

The conditions of series [1]: LOQ 10 pg/ml, cited from earlier work. The method, then:
Further, at 60 min in the previous study, the CSF concentrations of d5OT after IN delivery of 80 IU were highly variable (11, 16, 67, and 221 pg/ml), and would have been detectable in only two of the monkeys using the a ... || page 8: 4. It is surprising that no CSF d5 OT was detected at 60 or 120 minutes in CSF after IN administration. […] In our previous study (Lee et al., Mol Psychiatry 2018), after IN administration, CSF d5OT concentration at 60 minutes was quantified in 4 monkeys as follows: 11.28, 15.99, 67.65 and 221.62 pg/ml. In this previous study, the limit of quantification (LOQ) for d5OT was 10 pg/ml. The LOQ of d5OT in the present study was 100 pg/ml and the method dete ...

A short description of series [2]: Plasma concentration of d5OT by LC-MS/MS after IN or IV d5OT. Format: in vivo, rhesus macaques (Macaca mulatta). The conditions noted are these: for level at 1 h: rhesus monkey, plasma, 60 min, present study. The procedure:
(§1) The six monkeys were dosed once a week, for 4 consecutive weeks, with each DOSE–ROUTE condition of d5OT (40 IU IN, 40 IU IV, 80 IU IN, or 80 IU IV). Each DOSE–ROUTE condition was assigned using a Latin square randomization (Table 4). Sessions were separated by at least 6 days. During each session, CSF (750 µl) and blood (5 ml) samples were drawn immediately prior to (T = 0) and following (T = 60 and 120 min) each administration of d5OT.
(§2) Monkeys were divided into three groups, each with two monkeys; each group received the following in a terminal study at the 5th week: Group 1 (Monkeys ID# 1 and ID# 5) received 40 IU of d5OT IN, Group 2 received 80 IU of d5OT IN (Monkeys ID# 2 and ID# 4) and Group 3 received 80 IU of d5OT IV (Monkeys ID# 3 and ID# 6). Animals were perfused on average, 140 ± 7 (mean ± SD) min after d5OT administration (range = 135–149 min) (Table 4). Plasma and CSF were drawn just before administration of d5OT, at the midpoint between d5OT administration and perfusion (~60 min post-d5OT administration), and just before perfusion.
Chemicals: An unlabeled standard for d0OT and deuterated standard for d5OT were purchased from Sigma-Aldrich (St. Louis, MO); d10OT was purchased for use as an internal standard through a custom order from Cayman Chemical (Ann Arbor, MI). All other reagents were commercially available, and we purchased LC or MS grade chemicals when available. Plasma and CSF sample preparation for LC–MS/MS analysis. CSF and plasma samples were collected as described above. […]
(§3) Solid-phase extraction (SPE) columns (Strata-X-Drug B, 60 mg/6 ml, Phenomenex, Torrance, CA) were conditioned prior to use by adding 2 ml of methanol, followed by 2 ml of water, and 2 ml of 0.2 M ammonium acetate (pH 3.0) in water; each was allowed to flow through by gravity before the next was added. […] After a 15 min incubation at 4 °C, plates were filtered into microtiter plates (Shimadzu, Kyoto, Japan) using a positive pressure manifold (8 min at 5 psi, followed by 15 s at 15 psi; Biotage, Uppsala, Sweden), and analyzed. […]

Series [3] in a line: CSF concentration of d5OT by LC-MS/MS after IN or IV d5OT. Format: in vivo, rhesus macaques (Macaca mulatta). The procedure: as §1, §2
Chemicals: An unlabeled standard for d0OT and deuterated standard for d5OT were purchased from Sigma-Aldrich (St. Louis, MO); d10OT was purchased for use as an internal standard through a custom order from Cayman Chemical (Ann Arbor, MI). All other reagents were commercially available, and we purchased LC or MS grade chemicals when available. Plasma and CSF sample preparation for LC–MS/MS analysis. CSF and plasma samples were collected as described above. Using 15 ml polystyrene tubes, 1.0 ml of each standard, quality control (QC), or plasma sample was combined with 30 µl of internal standard mixture (34 ng/ml d10OT in 50:50 acetonitrile (ACN):water, v–v) and incubated for 20 min on ice. Volumes used for CSF samples ranged from 0.4 to 1.0 ml, depending on sample availability. CSF samples <1.0 ml were brought to a final volume of 1.0 ml using charcoal-stripped serum, prior to addition of internal standard. To each tube, 2 ml of ice-cold ACN was added, vortexed thoroughly, and centrifuged at 2500 × g for 10 min at 4 °C. The supernatants were transferred to new 13 mm × 100 mm polypropylene tubes and evaporated in a 37 °C water bath, under forced air, to a volume of <1 ml. We then added 5.5 ml of 0.2 M ammonium acetate (pH 3.0) in water, capped the tubes and mixed by inversion, before centrifugation at 2500 × g for 10 min at 4 °C.
as §3, with “added. The supernatants from the previous step were then added to SPE columns (one supernatant per column) by pouring. Columns were washed with 2 ml ammonium acetate (pH 3.0) in water, followed by 2 ml water and 2 ml ACN, and dried for 5 min in a vacuum manifold (5 in Hg; Millipore, Burlington, MA). OT was eluted with 2 × 1 ml 0.2% ammonium hydroxide in methanol into 12 mm × 75 mm polypropylene tubes and evaporated to dryness under forced air in a 37 °C water bath.” for “added.”

In the case of `CC[C@H](C)[C@@H]1NC(=O)[C@H](Cc2ccc(O)cc2)NC(=O)[C@@H](N)CSSC[C@@H](C(=O)N2CCC[C@H]2C(=O)N[C@@H](CC(C)C)C(=O)NCC(N)=O)NC(=O)[C@H](CC(N)=O)NC(=O)[C@H](CCC(N)=O)NC1=O` [d5OT], in series [1] (60 min after IN delivery of 80 IU, individual monkeys, previous study), the “CSF concentrations of d5OT” value was 11 pg/mL and 16 pg/mL and 67 pg/mL and 221 pg/mL. For the same molecule, the “CSF d5OT concentration” value in series [1] (60 minutes after IN administration, 4 individual monkeys, ref Lee et al., Mol Psychiatry 2018) is 11.28 pg/mL and 15.99 pg/mL and 67.65 pg/mL and 221.62 pg/mL. In addition, the “Concentrations of d5OT in the plasma” value in series [2] (after 40 IU IN, all concentrations, LOQ 100 pg/ml) was “below the level of quantification”. Further, the level at 1 h in series [2] (80 IU IN condition, read-out: Plasma d5OT) amounted to 0.284 ± 0.288 ng/mL; in series [2] (IV condition, read-out: Mean plasma concentration of d5OT), 1.99 ± 0.476 ng/mL. Besides, the “d5OT in CSF” value in series [3] (120 min after IV administration (40 and 80 IU), LC-MS/MS, MDL 38 pg/ml) is “no d5OT detected”; in series [3] (after IN administration of either dose (40 or 80 IU), any timepoint, LC-MS/MS, MDL 38 pg/ml), “no d5OT detected”; in series [3] (just prior to necropsy, after 80 IU IV, single monkey, LOQ 100 pg/ml), “below the limit of quantification”; in series [3] (timepoint 60 min after 40 IU IV, N = 6, LC-MS/MS, LOQ 100 pg/ml, MDL 38 pg/ml), “detected”; in series [3] (timepoint 60 min after 80 IU IV, N = 6, LC-MS/MS, LOQ 100 pg/ml, MDL 38 pg/ml), “detected”.
